Measured values published in PMC8781390, “Inclusion Complexes of Rifampicin with Native and Derivatized Cyclodextrins: In Silico Modeling, Formulation, and Characterization” (Pharmaceuticals, 2021).
In brackets after ≈: the same amount, converted by molar mass. Read-outs that look alike come from different tables or passages of the source.

Key:
[1] = Phase solubility analysis of RIF with cyclodextrins (binding constant, complexation efficiency); format: physicochemical
Method: Phase solubility analysis was carried out similarly to the saturation solubility studies by using a range of concentrations of CDs in buffered solutions at different pH vales. […] Solubility of each drug was determined and plotted in a graph with the nominal concentration of cyclodextrin on the x-axis and the nominal concentration of RIF on the y-axis.
In order to determine the binding strength of CD and RIF, the binding constant (Ks) was calculated based on the phase diagram of solubility studies. […] (1) Ks=[RIF−CD]/[RIF]free·[CD]free CD+RIF↔KsCD−RIF where [RIF − CD], [RIF]free, and [CD]free are concentration of the RIF-CD complexes, free RIF, and free CD, respectively.
[RIF]free can be considered as RIF initial solubility (S0), therefore Equation (2) becomes:(2) Ks=[RIF−CD]/S0·[CD]free
The phase solubility diagram was constructed by plotting the RIF molar concentration on the y-axis and the CD molar concentration on the x-axis. […] (3) Ks=slope/S0·(1−slope)
The complexation efficiency (CE) was determined by using the slope of the phase solubility diagram according to Equation (4). (4) CE=[CD−RIF]/[CD]free=S0·Ks=slope/1−slope
Based on CE determination, the CD molar ratio was calculated using Equation (5). (5) Drug :CD molar ratio=1 : (CE+1)/CE

[2] = Saturation solubility of RIF in buffered solutions; format: physicochemical; settings: buffered solution
Method: Solubility studies were performed to assess RIF solubility in a range of buffers (pH 4.0, pH 7.0, and pH 9.0). For this purpose, an excess amount of RIF was added to 3 mL of adjusted buffered solutions in a glass vial. Suspensions were stirred at 100 rpm in a shaker incubator (Jeio Tech ISF-7100, Medline Scientific, Chalgrove Oxon, UK) at 37 °C for 24 h. Samples were then filtered using 0.2 μm syringe filters (Minisart®, Sartorius Stedim Biotech, Goeltingen, Germany). All samples were diluted appropriately and analyzed using the validated HPLC method described in Section 2.10.
(§1) The HPLC method for RIF quantification was adapted from our previous work. HPLC Agilent 1220 Series (Agilent Technologies, UK Ltd., Stockport, UK) was used to analyze all the samples. Isocratic separation was achieved using a Phenomenex® Luna C18 (ODS1) column (150 × 4.6 mm internal diameter, 5 µm packing) (Phenomenex, Cheshire, UK). The injection volume was 50 µL and the analysis was carried out at room temperature with a flow rate of 1 mL/min. The mobile phase was a mixture of 25 mM sodium dihydrogen phosphate buffer (with 1% triethylamine and adjusted using phosphoric acid at pH 6.8) and methanol (ratio 30:70 v/v). RIF was detected by a UV at 334 nm. All chromatograms were analyzed using the Agilent ChemStation® Software B.02.01.

[3] = In vitro release / dissolution study; format: physicochemical; settings: all studied release media (pH 1.2, 6.8, 7.4), 37 °C
Method: In vitro release profiles for pure RIF and RIF-CD inclusion complexes were evaluated […]. Simulated gastric fluid (pH 1.2), simulated intestinal fluid (pH 6.8), and PBS (pH 7.4) were prepared as the release media in this study and used to mimic biological conditions in the human body. All samples were added into Eppendorf tubes containing 2 mL of the release media and were then placed in an incubator at 37 °C with shaking at 40 rpm. Sampling was carried out at 1, 2, 3, 4, 5, 6, 7, 8, and 24 h by taking 200 µL of each sample, transferring them to HPLC vials containing glass inserts, and replacing the sample with 200 µL of fresh release media. The samples were analyzed using a validated HPLC method.
as §1, with “The mobile phase was a mixture of 25 mM sodium dihydrogen phosphate buffer (with 1% triethylamine and adjusted using phosphoric acid at pH 6.8) and methanol (ratio 30:70 v/v).” left out

[4] = parameters: method as in earlier work; settings: in humans; cited from earlier work
[5] = test system: Methicillin-resistant Staphylococcus aureus (MRSA) (ATCC 33593); experiment: MIC by broth microdilution; format: cell-based; settings: MRSA ATCC 33593, 37 °C, 24 h
Method: (§2) The minimum inhibitory concentration (MIC) of pure RIF and RIF-CD complexes was determined against both Staphylococcus aureus (NCTC® 10788) and methicillin-resistant Staphylococcus aureus (MRSA) (ATCC® 33593™) using the broth microdilution method. Briefly, inclusion complexes of RIF-CD were separately dissolved in sterile distilled water and diluted with Mueller–Hinton broth (MHB) to obtain a series of culture media containing different RIF concentrations ranging from 50 to 0.78 µg/mL. Solutions and suspensions of pure RIF were prepared by adding the pure RIF in methanol and in sterile distilled water, respectively, and then diluted with MHB to achieve the same concentration as for the RIF-CD inclusion complexes. Culture media in the microplates were inoculated with 100 µL of each bacterial suspension to achieve a final bacterial concentration of 2.0 × 10^5 CFU/mL. Pure MHB inoculated with the different bacterial strains was included as a positive control. The inoculated culture media were then incubated at 37 °C for 24 h. The MIC was determined as the lowest concentration of pure RIF and RIF-CD inclusion complexes where no visible bacterial growth was detected.

[6] = test system: Staphylococcus aureus (NCTC 10788); experiment: MIC by broth microdilution; format: cell-based; settings: Staphylococcus aureus NCTC 10788, 37 °C
Method: as §2

Compound	CE (complexation efficiency) ([1]; pH 4.0)	Ks (binding constant) ([1]; pH 4.0, RIF-CD 1:1 complex) [M⁻¹]	CE (complexation efficiency) ([1]; pH 7.0)	Ks (binding constant) ([1]; pH 7.0, RIF-CD 1:1 complex) [M⁻¹]	further results
OC[C@H]1O[C@@H]2O[C@H]3[C@H](O)[C@@H](O)[C@@H](O[C@H]4[C@H](O)[C@@H](O)[C@@H](O[C@H]5[C@H](O)[C@@H](O)[C@@H](O[C@H]6[C@H](O)[C@@H](O)[C@@H](O[C@H]7[C@H](O)[C@@H](O)[C@@H](O[C@H]8[C@H](O)[C@@H](O)[C@@H](O[C@H]1[C@H](O)[C@H]2O)O[C@@H]8CO)O[C@@H]7CO)O[C@@H]6CO)O[C@@H]5CO)O[C@@H]4CO)O[C@@H]3CO [βCD]	0.09	215	0.29	250	
CO[C@H]1/C=C/O[C@@]2(C)Oc3c(C)c(O)c4c(O)c(c(/C=N/N5CCN(C)CC5)c(O)c4c3C2=O)NC(=O)/C(C)=C\C=C\[C@H](C)[C@H](O)[C@@H](C)[C@@H](O)[C@@H](C)[C@H](OC(C)=O)[C@@H]1C [RIF, Rifampicin]					solubility at 24 h ([2]; aqueous buffer, thermodynamic from solid, buffer pH 7.0, 37 °C): 870 µg/mL (≈ 1060 µM); solubility at 24 h ([2]; buffer pH 4.0, 37 °C): 310 µg/mL (≈ 377 µM); solubility at 24 h ([2]; buffer pH 9.0, 37 °C): 1400 µg/mL (≈ 1700 µM); RIF released in 2 h [3]: less than 10%; oral bioavailability [4]: approximately 68%
CO[C@H]1/C=C/O[C@@]2(C)Oc3c(C)c(O)c4c(O)c(c(/C=N/N5CCN(C)CC5)c(O)c4c3C2=O)NC(=O)/C(C)=C\C=C\[C@H](C)[C@H](O)[C@@H](C)[C@@H](O)[C@@H](C)[C@H](OC(C)=O)[C@@H]1C [Pure RIF (suspension), Rifampicin]					MIC ([5]; n = 3): 1.56 µg/mL (≈ 1.9 µM); MIC ([6]; 24 h, n = 3): 1.56 µg/mL (≈ 1.9 µM)
OC[C@H]1O[C@@H]2O[C@H]3[C@H](O)[C@@H](O)[C@@H](O[C@H]4[C@H](O)[C@@H](O)[C@@H](O[C@H]5[C@H](O)[C@@H](O)[C@@H](O[C@H]6[C@H](O)[C@@H](O)[C@@H](O[C@H]7[C@H](O)[C@@H](O)[C@@H](O[C@H]8[C@H](O)[C@@H](O)[C@@H](O[C@H]9[C@H](O)[C@@H](O)[C@@H](O[C@H]1[C@H](O)[C@H]2O)O[C@@H]9CO)O[C@@H]8CO)O[C@@H]7CO)O[C@@H]6CO)O[C@@H]5CO)O[C@@H]4CO)O[C@@H]3CO [γCD]	0.80		1.22	1284	
CO[C@H]1/C=C/O[C@@]2(C)Oc3c(C)c(O)c4c(O)c(c(/C=N/N5CCN(C)CC5)c(O)c4c3C2=O)NC(=O)/C(C)=C\C=C\[C@H](C)[C@H](O)[C@@H](C)[C@@H](O)[C@@H](C)[C@H](OC(C)=O)[C@@H]1C [Pure RIF (solution), Rifampicin]					MIC ([5]; Staphylococcus aureus, n = 3, read-out: MIC): 0.78 µg/mL (≈ 0.948 µM); MIC ([6]; Staphylococcus aureus, NCTC10788, 24 h, n = 3, read-out: MIC): 0.78 µg/mL (≈ 0.948 µM)
hydroxypropyl-βCD [HP-βCD]	0.20	541	0.92	848	CE (complexation efficiency) ([1]; pH 9.0): 1.12; Ks (binding constant) ([1]; pH 9.0, RIF-CD 1:1 complex): 649 M⁻¹
